The source made the active and inactive calls.
Columns and labels:
[1] = cytotoxicity toward NIH3T3 fibroblasts, dose response, counter-screen, cell-based, ATP luminescence, mouse fibroblasts (AID 2010); format: functional;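 note: cells exposed to compound for about 90 hours before reading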
[2] = inhibitors of intracellular T. cruzi replication, confirmation, NIH3T3 host cells, beta-gal luminescence (AID 2044); format: functional, cell-based;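 note: intracellular parasites grown in NIH/3T3 mouse fibroblasts as host cells; luminescent beta-galactosidase reporter signal from transgenic T. cruzi replicating inside host cells; inhibitors lower the luminescence signal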
[3] = Luminescence Cell-Based Dose Confirmation to Identify Activators of 5'UTR Stem-Loop Driven Alpha-Synuclein mRNA Translation in H4 Neuroglioblastoma Cells. [Related pubchem assays: 1829 (Project Summary), 1814 (Primary HTS)]; format: functional
[4] = Luminescence Cell-Based Dose Response to Identify Activators of 5'UTR Stem-Loop Driven Prion Protein mRNA Translation in H4-C Neuroglioblastoma Cells. [Related pubchem assays: 1829 (Project Summary), 1814 (Primary HTS)]; format: functional
[5] = Luminescence Cell-Based Dose Response HTS to Identify Activators of Luciferase Translation or Activity in H4 […] Cells. [Related pubchem assays: 1829 (Project Summary), 1814 (Primary HTS)]; format: functional
[6] = Luminescence Cell-Based Dose Response to Identify Activators of Luciferase Translation or Activity in H4-C Neuroglioblastoma Cells. [Related pubchem assays: 1829 (Project Summary), 1814 (Primary HTS)]; format: functional
H4 = assay: Luminescence Cell-Based Dose Response HTS to Identify Activators of 5'UTR Stem-Loop Driven Prion Protein mRNA Translation in H4 Neuroglioblastoma Cells. [Related pubchem assays: 1829 (Project Summary), 1814 (Primary HTS)]; format: functional; settings: Homo sapiens
[7] = Luminescence Cell-Based Dose Confirmation HTS to Identify Activators of 5'UTR Stem-Loop Driven Alpha-Synuclein mRNA Translation in H4 Neuroglioblastoma Cells. [Related pubchem assays: 1829 (Project Summary), 1814 (Primary HTS)]; format: functional
[8] = target: NAD-dependent protein deacylase sirtuin-5, mitochondrial (Homo sapiens, UniProt Q9NXA8); assay: SIRT5 desuccinylase inhibitors, dose response, biochemical, fluorescence imaging, cherry-pick, set 5 (AID 720591);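 note: desuccinylation of succinyl peptide AMC substrate read as fluorescence after trypsin release; potency of inhibitors that lower fluorescence and may act on trypsin instead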
[9] = target: T1, Carboxy-terminal domain RNA polymerase II polypeptide A small phosphatase 1 (Homo sapiens, UniProt Q9GZU7); assay: inhibitors of CTDSP1, concentration-response testing, biochemical assay, absorbance-based, actives from ultra-high-throughput screening (AID 540297); format: functional
T1 sequence (Q9GZU7 whole entry): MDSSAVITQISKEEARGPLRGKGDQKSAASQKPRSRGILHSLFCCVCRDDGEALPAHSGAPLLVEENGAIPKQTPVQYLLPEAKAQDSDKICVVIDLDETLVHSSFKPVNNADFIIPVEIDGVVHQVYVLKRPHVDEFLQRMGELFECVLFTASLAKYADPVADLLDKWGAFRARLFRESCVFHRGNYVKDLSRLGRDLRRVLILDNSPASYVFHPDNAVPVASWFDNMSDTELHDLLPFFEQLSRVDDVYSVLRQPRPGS

[10] = M. tuberculosis H37Rv growth inhibitors, H37Rv strain (AID 1626); format: functional
[11] = target: E3 ubiquitin-protein ligase Mdm2 (Homo sapiens, UniProt Q00987); assay: enhancers of MDM2-luciferase reporter signal, concentration-effect titration, project on inhibitors of MDM2 ubiquitin ligase, cellular assay, luminescent readout, 384-well plate format (AID 1394); format: functional;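 note: MDM2 E3 inhibitors raise luminescence so EC50 is for signal enhancement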
Cytochrome P450 3A4 = Cytochrome P450 3A4 (Homo sapiens, UniProt P08684); settings: Potency;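 note: confirmatory qHTS run detecting inhibitors and substrates of CYP3A4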
[12] = target: T2, Tyrosine-protein phosphatase non-receptor type 7 (Homo sapiens, UniProt P35236); assay: inhibitors of human HePTP phosphatase, […], biochemical, absorbance, leukemia target (AID 521); format: functional
T2 sequence (P35236 whole entry): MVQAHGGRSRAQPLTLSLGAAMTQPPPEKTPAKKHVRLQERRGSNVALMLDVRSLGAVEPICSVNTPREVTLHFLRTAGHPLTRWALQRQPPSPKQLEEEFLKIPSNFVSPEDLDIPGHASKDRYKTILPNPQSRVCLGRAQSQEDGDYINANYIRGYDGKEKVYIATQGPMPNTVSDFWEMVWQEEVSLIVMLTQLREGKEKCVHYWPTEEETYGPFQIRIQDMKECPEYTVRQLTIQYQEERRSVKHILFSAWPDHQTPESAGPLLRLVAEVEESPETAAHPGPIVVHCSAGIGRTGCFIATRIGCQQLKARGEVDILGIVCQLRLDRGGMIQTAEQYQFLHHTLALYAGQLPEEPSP

[13] = target: Voltage-dependent T-type calcium channel subunit alpha-1H (Homo sapiens, UniProt O95180); format: functional;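 note: channel activity triggered by adding a high calcium stimulation buffer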
Sequence of Voltage-dependent T-type calcium channel subunit alpha-1H (O95180 whole entry): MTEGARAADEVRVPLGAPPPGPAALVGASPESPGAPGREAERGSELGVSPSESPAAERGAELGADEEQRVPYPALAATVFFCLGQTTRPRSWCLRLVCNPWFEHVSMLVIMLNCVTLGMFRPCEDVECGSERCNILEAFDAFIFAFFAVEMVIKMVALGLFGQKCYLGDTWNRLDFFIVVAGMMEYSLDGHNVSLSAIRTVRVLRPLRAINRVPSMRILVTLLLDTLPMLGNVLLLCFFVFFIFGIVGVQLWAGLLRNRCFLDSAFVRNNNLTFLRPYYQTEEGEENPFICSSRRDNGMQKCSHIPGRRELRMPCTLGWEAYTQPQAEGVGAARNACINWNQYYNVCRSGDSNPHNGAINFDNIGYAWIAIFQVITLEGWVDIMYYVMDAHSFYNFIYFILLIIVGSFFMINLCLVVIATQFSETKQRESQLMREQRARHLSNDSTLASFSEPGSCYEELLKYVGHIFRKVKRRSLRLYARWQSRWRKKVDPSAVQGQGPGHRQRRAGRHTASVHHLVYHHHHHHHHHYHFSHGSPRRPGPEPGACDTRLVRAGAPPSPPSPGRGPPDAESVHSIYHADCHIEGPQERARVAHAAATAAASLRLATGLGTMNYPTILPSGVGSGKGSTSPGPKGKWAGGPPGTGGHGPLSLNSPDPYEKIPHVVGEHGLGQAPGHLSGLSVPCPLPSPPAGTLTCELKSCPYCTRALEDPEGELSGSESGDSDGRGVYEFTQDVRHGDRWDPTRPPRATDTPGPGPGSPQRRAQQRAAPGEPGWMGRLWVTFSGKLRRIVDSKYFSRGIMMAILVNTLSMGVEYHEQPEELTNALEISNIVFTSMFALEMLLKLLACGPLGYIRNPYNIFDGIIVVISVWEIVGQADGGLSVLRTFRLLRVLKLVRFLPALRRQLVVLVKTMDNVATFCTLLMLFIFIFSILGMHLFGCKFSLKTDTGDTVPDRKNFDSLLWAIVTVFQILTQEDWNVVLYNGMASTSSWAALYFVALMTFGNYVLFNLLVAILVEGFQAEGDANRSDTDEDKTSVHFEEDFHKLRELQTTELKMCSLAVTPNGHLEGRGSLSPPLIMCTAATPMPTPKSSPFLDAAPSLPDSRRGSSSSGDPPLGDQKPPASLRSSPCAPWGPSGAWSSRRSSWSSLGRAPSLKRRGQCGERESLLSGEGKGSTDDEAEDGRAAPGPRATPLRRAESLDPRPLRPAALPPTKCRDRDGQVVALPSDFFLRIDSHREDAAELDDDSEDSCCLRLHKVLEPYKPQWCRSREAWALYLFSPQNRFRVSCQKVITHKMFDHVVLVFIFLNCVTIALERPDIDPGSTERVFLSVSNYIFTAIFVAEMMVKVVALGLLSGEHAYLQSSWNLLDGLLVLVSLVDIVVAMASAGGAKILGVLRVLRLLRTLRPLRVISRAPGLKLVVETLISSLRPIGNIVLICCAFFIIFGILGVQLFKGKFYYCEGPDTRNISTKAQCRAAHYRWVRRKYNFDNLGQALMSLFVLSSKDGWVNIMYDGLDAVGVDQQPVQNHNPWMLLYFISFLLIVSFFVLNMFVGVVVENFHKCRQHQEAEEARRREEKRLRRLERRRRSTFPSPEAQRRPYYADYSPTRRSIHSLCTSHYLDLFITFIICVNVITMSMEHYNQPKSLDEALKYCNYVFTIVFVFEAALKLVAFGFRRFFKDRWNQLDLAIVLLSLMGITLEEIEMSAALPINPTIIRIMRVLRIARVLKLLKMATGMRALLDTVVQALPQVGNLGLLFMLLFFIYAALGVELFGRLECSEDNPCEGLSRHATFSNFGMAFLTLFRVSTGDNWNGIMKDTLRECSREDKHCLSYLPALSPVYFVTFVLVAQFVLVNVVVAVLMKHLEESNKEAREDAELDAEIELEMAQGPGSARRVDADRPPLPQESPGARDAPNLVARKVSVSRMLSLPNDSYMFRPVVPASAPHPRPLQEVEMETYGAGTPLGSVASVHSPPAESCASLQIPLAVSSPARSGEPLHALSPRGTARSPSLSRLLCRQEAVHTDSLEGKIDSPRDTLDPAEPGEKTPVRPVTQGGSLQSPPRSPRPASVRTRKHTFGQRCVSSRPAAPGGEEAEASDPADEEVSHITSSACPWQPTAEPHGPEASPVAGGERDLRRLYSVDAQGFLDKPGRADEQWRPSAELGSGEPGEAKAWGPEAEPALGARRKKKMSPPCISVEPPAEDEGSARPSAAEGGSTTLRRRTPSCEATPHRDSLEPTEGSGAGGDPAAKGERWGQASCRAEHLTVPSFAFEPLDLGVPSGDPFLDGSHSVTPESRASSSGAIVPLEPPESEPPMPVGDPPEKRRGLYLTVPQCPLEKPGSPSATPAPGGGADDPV

Sequence of Cytochrome P450 3A4 (P08684 whole entry): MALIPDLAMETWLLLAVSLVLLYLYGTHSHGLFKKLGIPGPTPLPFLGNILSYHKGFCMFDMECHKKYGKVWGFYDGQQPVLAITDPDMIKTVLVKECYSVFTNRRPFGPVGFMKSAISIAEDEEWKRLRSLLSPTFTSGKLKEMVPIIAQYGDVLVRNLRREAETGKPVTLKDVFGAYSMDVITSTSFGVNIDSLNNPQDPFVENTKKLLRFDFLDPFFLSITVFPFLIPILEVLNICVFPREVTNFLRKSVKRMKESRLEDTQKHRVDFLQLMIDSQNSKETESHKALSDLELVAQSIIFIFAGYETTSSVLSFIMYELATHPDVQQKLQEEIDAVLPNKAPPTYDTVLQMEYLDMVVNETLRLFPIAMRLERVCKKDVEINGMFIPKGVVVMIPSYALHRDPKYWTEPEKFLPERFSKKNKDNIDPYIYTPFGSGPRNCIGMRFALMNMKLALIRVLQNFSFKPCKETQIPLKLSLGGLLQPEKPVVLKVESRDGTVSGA
Sequence of E3 ubiquitin-protein ligase Mdm2 (Q00987 whole entry): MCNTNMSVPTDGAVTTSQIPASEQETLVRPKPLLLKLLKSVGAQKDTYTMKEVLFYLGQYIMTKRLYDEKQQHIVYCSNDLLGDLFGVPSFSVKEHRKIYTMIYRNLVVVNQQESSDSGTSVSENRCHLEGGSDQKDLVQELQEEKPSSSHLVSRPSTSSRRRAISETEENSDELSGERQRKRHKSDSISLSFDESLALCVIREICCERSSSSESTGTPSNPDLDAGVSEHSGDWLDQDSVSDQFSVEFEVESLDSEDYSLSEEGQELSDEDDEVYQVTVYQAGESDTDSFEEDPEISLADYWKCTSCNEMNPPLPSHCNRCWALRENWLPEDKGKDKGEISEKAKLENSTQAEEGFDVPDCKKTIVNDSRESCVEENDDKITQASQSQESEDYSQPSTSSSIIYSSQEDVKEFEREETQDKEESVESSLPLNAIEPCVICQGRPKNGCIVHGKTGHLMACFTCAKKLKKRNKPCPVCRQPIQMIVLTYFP
Sequence of NAD-dependent protein deacylase sirtuin-5, mitochondrial (Q9NXA8 whole entry, the tested form may be a part): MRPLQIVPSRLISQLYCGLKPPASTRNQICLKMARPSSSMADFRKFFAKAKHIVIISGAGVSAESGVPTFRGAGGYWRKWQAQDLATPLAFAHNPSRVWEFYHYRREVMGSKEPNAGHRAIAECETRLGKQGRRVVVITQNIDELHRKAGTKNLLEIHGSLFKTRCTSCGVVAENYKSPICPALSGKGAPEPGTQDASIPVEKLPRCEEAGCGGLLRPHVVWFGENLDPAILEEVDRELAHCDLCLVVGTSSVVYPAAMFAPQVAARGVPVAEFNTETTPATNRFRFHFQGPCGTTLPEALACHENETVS

CC1CCc2c(sc(NC(=O)Cn3cnc([N+](=O)[O-])n3)c2C(N)=O)C1 (centres undefined)
EC50 [1]: > 30 µM (not active)
EC50 (cells): 0.102 µM (active)
EC50 [2]: < 0.1 µM (active)

CC(C)c1ccc(C(=O)NN2C(=O)C3CCCCC3C2=O)cc1 (centres undefined)
EC50 [3]: 1.33 µM (active)
EC50 [4]: 1.21 µM (active)
EC50 [5]: 0.118 µM (active)
EC50 [6]: 1.48 µM (active)
EC50 (H4): 28.8 µM (active)
EC50 [7]: < 0.1 µM (active)

O=C(O)CSc1ncnc2c1sc1nc(-c3ccccc3)c3c(c12)CCC3
AC50 [8]: > 30 µM (inactive)
IC50 [9]: 4.04 µM (active)

O=C(CCSc1ccccc1)Nc1nnc(-c2ccccc2)o1
IC50 [10]: > 100 µM (active)

CCOC(=O)c1c(NC(=O)Cn2cnc([N+](=O)[O-])n2)sc2c1CCC(C)C2 (centres undefined)
EC50 [1]: > 60 µM (not active)
EC50 (cells): 0.221 µM (active)
EC50 [2]: < 0.1 µM (active)

Cc1cc(C)nc(S/C=C/C(=O)c2ccc(F)cc2)n1
EC50 [11]: 0.81 µM (active)

COC(=O)CC1C(C)(C)C2(O)OC34CC2C(=O)[C@@]1(C)C3CC[C@]1(C)C4=CC(=O)OC1c1ccoc1 (some centres undefined)
AC50 (Cytochrome P450 3A4): 3.16 µM (inconclusive)

Oc1ccc2c(c1)OCC1c3cc4c(cc3OC21)OCO4 (centres undefined)
AC50 (Cytochrome P450 3A4): 39.8 µM (inconclusive)

C(=C\c1ccccc1)/CN1CCN(Cc2ccc3c(c2)OCCO3)CC1
EC50 [1]: > 60 µM (not active)
EC50 (cells): 0.053 µM (active)
EC50 [2]: < 0.1 µM (active)

O=C(CCCn1c(=S)[nH]c2ccsc2c1=O)NCc1ccco1
IC50 [12]: > 100 µM (not active)

CCC(=O)Nc1ccc(NC(=O)c2ccco2)c(OC)c1
IC50 [12]: > 100 µM (not active)

COc1ccccc1NC(=O)N1CCc2[nH]c3ccc(Cl)cc3c2C1
EC50 [13]: 11.4 µM (active)

Reference: ChEMBL document CHEMBL1201862, “PubChem BioAssay data set” (2004)
